Measurements taken from PMC3827244, “An Ultrasensitive High Throughput Screen for DNA Methyltransferase 1-Targeted Molecular Probes” (PLoS ONE, 2013).

Tests used:
M.SssI DNMT = target: T1, M.SssI DNMT (Spiroplasma monobiae, UniProt P15840); test: Compound selectivity, endonuclease-coupled DNA methylation assay; format: biochemical, bacterial; details: 1.25 h; 20 µM inhibitor, 20 nM methyltransferase, 0.25 mM SAM; read-out: Percent activity, M.SssI DNMT
T1 construct: purchased New England Biolabs
T1 sequence (P15840 whole entry): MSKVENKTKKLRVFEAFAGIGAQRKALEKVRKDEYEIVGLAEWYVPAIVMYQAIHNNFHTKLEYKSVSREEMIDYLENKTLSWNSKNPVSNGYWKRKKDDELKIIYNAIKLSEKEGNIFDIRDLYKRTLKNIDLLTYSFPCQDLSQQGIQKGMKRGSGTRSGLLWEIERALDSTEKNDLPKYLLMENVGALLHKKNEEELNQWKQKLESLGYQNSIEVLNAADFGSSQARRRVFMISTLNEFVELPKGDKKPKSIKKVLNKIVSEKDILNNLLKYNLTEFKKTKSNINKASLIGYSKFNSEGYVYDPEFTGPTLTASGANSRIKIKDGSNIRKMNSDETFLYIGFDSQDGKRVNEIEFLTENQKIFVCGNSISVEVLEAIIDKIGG
Protocol: After identifying direct inhibitors of DNMT1 lacking the RFTS domain, inhibitor selectivity was assessed by examining inhibition of RFTS-containing DNMT1 (amino acids 351–1616), CD-DNMT3A/DNMT3L complex, and the bacterial cytosine methyltransferase from M. SssI (New England Biolabs) using the endonuclease-coupled DNA methylation assay. Triplicate assays (100 µl) containing 0.25 mM SAM, 0.2 µM oligonucleotide 8006, 0.8 U GlaI, 20 nM methyltransferase, 20 µM inhibitor and 1% DMSO were conducted in 96 well plates. Following enzyme addition, assay plates were incubated at 37°C for 75 min and fluorescence was measured in a BioTek Neo plate reader. A control containing only GlaI was subtracted from each assay. […] Percent activity was determined by comparing product formation to a DMSO containing control assay.

[1] = target: T2, RFTS-containing DNMT1 (amino acids 351–1616) (Homo sapiens, UniProt P26358); test: as above; format: biochemical; details: 20 µM inhibitor, 20 nM methyltransferase, 0.25 mM SAM
T2 construct: RFTS-containing DNMT1, amino acids 351–1616; made in house
T2 sequence (P26358 351-1616): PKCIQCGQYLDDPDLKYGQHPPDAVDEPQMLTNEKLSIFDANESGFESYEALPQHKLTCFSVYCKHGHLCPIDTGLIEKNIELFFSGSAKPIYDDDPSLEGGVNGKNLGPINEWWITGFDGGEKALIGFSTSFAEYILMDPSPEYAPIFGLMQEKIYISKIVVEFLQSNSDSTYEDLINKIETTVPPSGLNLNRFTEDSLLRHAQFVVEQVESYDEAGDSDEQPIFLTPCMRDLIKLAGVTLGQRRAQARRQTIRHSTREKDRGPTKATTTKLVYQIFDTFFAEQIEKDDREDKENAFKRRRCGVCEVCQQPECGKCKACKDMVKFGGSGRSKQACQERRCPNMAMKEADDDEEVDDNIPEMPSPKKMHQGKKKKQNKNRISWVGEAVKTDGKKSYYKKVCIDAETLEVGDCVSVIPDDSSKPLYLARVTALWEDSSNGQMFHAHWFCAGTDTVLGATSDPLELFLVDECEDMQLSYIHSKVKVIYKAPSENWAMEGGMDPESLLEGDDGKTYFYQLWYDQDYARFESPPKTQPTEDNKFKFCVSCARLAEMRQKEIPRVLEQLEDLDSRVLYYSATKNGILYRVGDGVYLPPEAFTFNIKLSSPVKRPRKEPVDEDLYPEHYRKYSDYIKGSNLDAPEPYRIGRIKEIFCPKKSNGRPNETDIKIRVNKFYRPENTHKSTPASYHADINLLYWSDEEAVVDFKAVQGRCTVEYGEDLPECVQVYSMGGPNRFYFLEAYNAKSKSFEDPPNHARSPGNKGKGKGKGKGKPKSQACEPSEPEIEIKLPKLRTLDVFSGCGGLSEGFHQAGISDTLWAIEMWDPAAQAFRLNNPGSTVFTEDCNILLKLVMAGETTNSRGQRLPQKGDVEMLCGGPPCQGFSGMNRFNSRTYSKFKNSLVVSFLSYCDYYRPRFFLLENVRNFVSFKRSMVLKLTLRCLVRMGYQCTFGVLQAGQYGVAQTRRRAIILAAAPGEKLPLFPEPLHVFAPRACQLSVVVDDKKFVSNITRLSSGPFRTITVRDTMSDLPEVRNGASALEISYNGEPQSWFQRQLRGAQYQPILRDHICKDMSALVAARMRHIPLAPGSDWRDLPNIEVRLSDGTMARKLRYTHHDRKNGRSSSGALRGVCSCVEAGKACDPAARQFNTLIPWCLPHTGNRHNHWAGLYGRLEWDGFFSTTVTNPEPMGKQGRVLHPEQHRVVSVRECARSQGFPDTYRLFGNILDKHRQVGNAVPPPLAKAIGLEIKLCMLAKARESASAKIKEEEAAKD
Protocol: (§1) Triplicate assays (100 µl) containing 0.25 mM SAM, 0.2 µM oligonucleotide 8006, 0.8 U GlaI, 20 nM methyltransferase, 20 µM inhibitor and 1% DMSO were conducted in 96 well plates. Following enzyme addition, assay plates were incubated at 37°C for 75 min and fluorescence was measured in a BioTek Neo plate reader. A control containing only GlaI was subtracted from each assay. […] Percent activity was determined by comparing product formation to a DMSO containing control assay.

CD-DNMT3A/DNMT3L complex = target: T3, CD-DNMT3A/DNMT3L complex (Homo sapiens, UniProt Q9Y6K1); test: as above; format: biochemical; details: 20 µM inhibitor, 20 nM methyltransferase, 0.25 mM SAM
T3 construct: CD-DNMT3A; amino acids 611–912; His tag (N); made in house; host or cells: Rosetta 2(DE3)pLysS (E. coli) for CD-DNMT3A
T3 sequence (Q9Y6K1 611-912): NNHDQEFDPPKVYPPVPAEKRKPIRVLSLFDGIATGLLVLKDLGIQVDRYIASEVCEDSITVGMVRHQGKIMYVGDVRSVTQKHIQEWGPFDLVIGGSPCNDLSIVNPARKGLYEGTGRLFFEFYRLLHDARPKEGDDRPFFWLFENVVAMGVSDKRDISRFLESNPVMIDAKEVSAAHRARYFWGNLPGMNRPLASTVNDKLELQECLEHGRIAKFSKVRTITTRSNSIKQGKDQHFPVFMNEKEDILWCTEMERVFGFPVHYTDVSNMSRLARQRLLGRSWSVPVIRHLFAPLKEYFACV
T3 sequence (Q9UJW3 whole entry partner, the tested form may be a part): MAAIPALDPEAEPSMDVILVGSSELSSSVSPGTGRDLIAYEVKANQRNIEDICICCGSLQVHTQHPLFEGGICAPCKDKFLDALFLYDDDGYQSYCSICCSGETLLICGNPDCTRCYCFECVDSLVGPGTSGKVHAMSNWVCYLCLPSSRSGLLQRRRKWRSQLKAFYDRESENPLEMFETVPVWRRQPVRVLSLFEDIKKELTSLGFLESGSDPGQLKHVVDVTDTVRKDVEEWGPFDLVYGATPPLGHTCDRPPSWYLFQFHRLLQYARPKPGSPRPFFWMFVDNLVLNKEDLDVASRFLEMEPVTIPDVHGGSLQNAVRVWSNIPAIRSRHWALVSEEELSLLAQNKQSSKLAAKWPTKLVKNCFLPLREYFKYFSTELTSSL
Protocol: as §1

calf thymus DNA = test: DNA intercalation assay (ethidium bromide displacement); format: binding; details: 10 µM compound
Protocol: DNA intercalation was assessed by examining the ability of the compounds to displace ethidium bromide from calf thymus DNA (ctDNA; Sigma). Duplicate assays (100 µl) were conducted in black 96 well plates and contained 15 µg/ml ctDNA, 1.5 µM ethidium bromide and 10 µM compound in methylation assay buffer. DMSO was used as a negative control and daunorubicin (Sigma) was used as a positive control. Fluorescence was measured using excitation and emission wavelengths of 320 nm and 600 nm, respectively.

| Structure (SMILES) | remaining activity at 20 µM (M.SssI DNMT) [%] | Percent activity, RFTS-containing Dnmt1 [1] [%] | Percent activity, DNMT3A/DNMT3L Complex (CD-DNMT3A/DNMT3L complex) [%] | DNA intercalation (in words) (calf thymus DNA) | RFU (ethidium bromide fluorescence) (calf thymus DNA; 15 µg/ml ctDNA, 1.5 µM ethidium bromide, DMSO 2370 ± 190) [RFU] |
| --- | --- | --- | --- | --- | --- |
| Nc1ncn([C@@H]2O[C@H](CO)[C@@H](O)[C@H]2O)c(=O)n1 [5-aza-cytidine, reference compound] | 100 ± 5 | 100±11 | 97±10 |  |  |
| COc1cccc2c1C(=O)c1c(O)c3c(c(O)c1C2=O)C[C@@](O)(C(C)=O)C[C@@H]3O[C@H]1C[C@H](N)[C@H](O)[C@H](C)O1 [Daunorubicin, daunorubicin, reference compound] |  |  |  | significantly reduced fluorescence | 605 ± 33 |
